The text below walks through data of patent US20250032454A1, “KDM1A INHIBITORS FOR THE TREATMENT OF DISEASE” (Imago Biosciences, Inc., priority 2021, published 2025).

Experiment [1] deals with LSD1 (Homo sapiens, UniProt O60341). Nature of the experiment: LSD1 fluorescence coupling enzyme assay (HRP/Amplex Red, H3(1-21)K4me2 peptide), 10-dose IC50. The experiment is classed as biochemical. The settings on record: 10 μM histone H3(1-21)K4me2 peptide substrate, 3-fold serial dilution from 100 μM. The text has this:
Assaying the inhibition of KDM1A can be determined in vitro, in cultured cells, and in animals. There are a variety of spectrophotometric methods to detect the results of demethylation of methylated lysines, viz., detecting the products of KDM1A demethylase oxidative activity on a peptide fragment of at least 18 amino acids representing the N-terminus of the histone H3 substrate that contains a monomethyl at the fourth lysine residue. Hydrogen peroxide, one product of the KDM1A demethylase reaction, reacts with horseradish peroxidase and dihydroxyphenoxazine (ADHP) to produce the fluorescent compound resorufin (excitation=530-560 nm: emission=590 nm). The KDM1A demethylase enzyme activity can be obtained from mammalian cells or tissues expressing KDM1A from an endogenous or recombinant gene and purified or assayed from a whole cell extract. These methods can be used to determine the concentration of the disclosed compounds can inhibit fifty percent of the enzyme activity (IC50).
Alternatively, the production of H2O2 during the KDM1A reaction can be detected fluometrically. In this system, the production of H2O2 is detected in the HDM assay buffer after exposure to substrate, co-factor and enzyme using ADHP (10-Acetyl-3, 7-dihydroxyphenoxazine) as a fluorogenic substrate for horse radish peroxidase (HRP). […] The florescent product is resorufin. Sensitivity can be as low as 10-15 M of target protein. The signal is read using a fluorescence microplate reader at excitation and emission wavelengths of 530-560 nm and 590 nm, respectively.
Compounds were tested in a 10-dose IC50 mode fluorescence coupling enzyme assay with 3-fold serial dilution in duplicate starting at 100 μM. The production of FAD-dependent H2O2 as a result of demethylase activity of LSD1 on 10 μM histone H3(1-21)K4me2 peptide substrate was measured by coupling with HRP and Amplex Red to yield resorufin (fluorescence measured at Ex/Em=535/590 nm on EnVision, Perkin Elmer).

Experiment [2] has as its system MV4;11 cells. Nature of the experiment: Cell Titer-Glo cell growth inhibition in MV4;11 cell line (Day 5 / Day 10). The experiment is classed as cell-based. As to the method: Cell growth inhibition against MV4;11 cells was confirmed for the synthetic compounds. The Cell Titer-Glo Luminescent Cell Viability Assay (Promega, USA) was used to determine the number of viable cells in culture based on quantitation of the ATP present, which signals the presence of metabolically active cells. This assay was run in a 96-well plate format arrayed in a 10-point dose curve, ranging from 0 to 50 µM with 4-fold dilutions for each compound. Cells are seeded on Day 0 at 3750 cells per well. At Day 5, a portion of each well is assayed for viability according to the Cell Titer-Glo protocol. Briefly, cells/plates were centrifuged at 1100×g for 5 minutes. 100 μL of media was removed from each well and replaced with 100 μL of CellTiter-Glo. The plates were shaken at room temperature for 10 minutes and measured on a luminescence plate reader. Another portion of each well from the Day 5 plate is used to seed a new 96 plate containing fresh compound and media set up in the equivalent 10-point dose curve array in order to continue the cell growth inhibition assay for another 5 days. A final timepoint is collected at Day 10 using the Cell Titer-Glo protocol. Luminescence was detected on an En Vision® Multilabel Plate Reader (Perkin Elmer, Waltham, Mass.) and IC50 determination was made using Graph Pad Prism software.
In general terms: In ATP-based viability assays light output follows the ATP content of the culture.

The mark [3] stands for this setting: Homo sapiens, MV4-11, 120 h, Day 5, read-out: Cell Titer-Glo IC50 (5 d).
Where [4] appears, read: Homo sapiens, MV4-11, 240 h, Day 10, read-out: Cell Titer-Glo IC50 (10 d).

Like-named read-outs stand apart in the source and are kept apart here.

The term IC50 denotes the point on the concentration scale where inhibition reaches its midpoint.

Turning to `N#Cc1ccc(-c2cc(NC[C@H]3CCC[C@H](N)C3)nn2-c2ccc(N3CCS(=O)(=O)CC3)cc2)cc1F` [Example 50, 4-(3-((((1S,3S)-3-aminocyclohexyl)methyl)amino)-1-(4-(1,1-dioxidothiomorpholino)phenyl)-1H-pyrazol-5-yl)-2-fluorobenzonitrile], the IC50 in experiment [1], in experiment [2] (setting [3]) and in experiment [2] (setting [4]) was under 500 nM throughout.

Take `Cn1cc2cc(-n3nc(NC[C@H]4CCCNC4)cc3-c3ccc(C#N)c(F)c3)ccc2n1` (single isomer, unassigned) [Example 9b]: the IC50 in experiment [1] and in experiment [2] (setting [3]) was under 500 nM throughout.

For `Cn1cc2cc(-n3nc(NC[C@@H]4CCCNC4)cc3-c3ccc(C#N)c(F)c3)ccc2n1` (single isomer, unassigned) [Example 9a], the figures for the IC50 in experiment [1] and in experiment [2] (setting [3]) were 1000 to 10000 nM and under 500 nM, respectively.

For the compound `N#Cc1ccc(-c2cc(NC[C@H]3CCC[C@H](N)C3)nn2-c2cccc(-n3ccnn3)c2)cc1F` [Example 62, 4-(1-(3-(1H-1,2,3-triazol-1-yl)phenyl)-3-((((1S,3S)-3-aminocyclohexyl)methyl)amino)-1H-pyrazol-5-yl)-2-fluorobenzonitrile], the IC50 in experiment [1] was 500 to 1000 nM; in experiment [2] (setting [3]), 1000 to 10000 nM; in experiment [2] (setting [4]) it was under 500 nM.

As for `N#Cc1ccc(-c2cc(NC[C@@H]3CCC[C@@H](N)C3)nn2-c2ccc3c(cnn3CCO)c2)cc1F` [Example 71, 4-(3-((((1R,3R)-3-aminocyclohexyl)methyl)amino)-1-(1-(2-hydroxyethyl)-1H-indazol-5-yl)-1H-pyrazol-5-yl)-2-fluorobenzonitrile], the IC50 in experiment [1], in experiment [2] (setting [3]) and in experiment [2] (setting [4]) was under 500 nM throughout.

On to `COc1ccc(-n2nc(NCC3CC3N)cc2-c2ccc(C#N)c(F)c2)cc1` (single isomer, unassigned) [Example 29b, 4-(3-(((2-aminocyclopropyl)methyl)amino)-1-(4-methoxyphenyl)-1H-pyrazol-5-yl)-2-fluorobenzonitrile], for which the 50% inhibitory concentration (IC50) is under 500 nM in experiment [1]; 1000 to 10000 nM in experiment [2] (Day 5, read-out: Cell Titer-Glo IC50 (5 d)); under 500 nM in experiment [2] (Day 10, read-out: Cell Titer-Glo IC50 (10 d)).

`COc1ccc(-n2nc(NC[C@H]3CCC[C@H](CN)C3)cc2-c2ccc(C#N)c(F)c2)cc1` [Example 80, 4-(3-((((15,3S)-3-(aminomethyl)cyclohexyl)methyl)amino)-1-(4-methoxyphenyl)-1H-pyrazol-5-yl)-2-fluorobenzonitrile] displayed a half-maximal inhibitory concentration (IC50) in experiment [1] of 500 to 1000 nM.

Compound `N#Cc1ccc(-c2cc(NCC34CCN(CC3)CC4)nn2-c2ccc3c(c2)NCCO3)cc1F` [Example 123, 4-(1-(3,4-Dihydro-2H-benzo[b][1,4]oxazin-6-yl)-3-((quinuclidin-4-ylmethyl)amino)-1H-pyrazol-5-yl)-2-fluorobenzonitrile 2,2,2-trifluoroacetate] yielded an IC50 in experiment [1] of under 500 nM.

Regarding `COC1(C)CCN(c2ccc(-n3nc(NCC45CCN(CC4)CC5)cc3-c3ccc(C#N)c(F)c3)cc2)CC1` [Example 125, 2-Fluoro-4-(1-(4-(4-methoxy-4-methylpiperidin-1-yl)phenyl)-3-((quinuclidin-4-ylmethyl)amino)-1H-pyrazol-5-yl)benzonitrile 2,2,2-trifluoroacetate], the IC50 in experiment [1] was under 500 nM.

Turning to `CCOC1CCN(c2ccc(-n3nc(NC[C@H]4CCC[C@H](N)C4)cc3-c3ccc(C#N)c(F)c3)cc2)CC1` [Example 97, 4-(3-((((1S,3S)-3-aminocyclohexyl)methyl)amino)-1-(4-(4-ethoxypiperidin-1-yl)phenyl)-1H-pyrazol-5-yl)-2-fluorobenzonitrile 2,2,2-trifluoroacetate], the 50% inhibitory concentration (IC50) in experiment [1] was under 500 nM.

For `N#Cc1ccc(-c2cc(NC[C@@H]3CCC[C@@H](N)C3)nn2-c2ccc(N3CCSCC3)cc2)cc1F` [Example 100, 4-(3-((((1R,3R)-3-aminocyclohexyl)methyl)amino)-1-(4-thiomorpholinophenyl)-1H-pyrazol-5-yl)-2-fluorobenzonitrile], the 50% inhibitory concentration (IC50) in experiment [1] was under 500 nM.

On to `COc1cc(N2CCS(=O)(=O)CC2)ccc1-n1nc(NCC23CCN(CC2)CC3)cc1-c1ccc(C#N)c(F)c1` [Example 126, 4-(1-(4-(1,1-Dioxidothiomorpholino)-2-methoxyphenyl)-3-((quinuclidin-4-ylmethyl)amino)-1H-pyrazol-5-yl)-2-fluorobenzonitrile 2,2,2-trifluoroacetate], for which, in experiment [1], the half-inhibitory concentration (IC50) was under 500 nM.

For `N#Cc1ccc(-c2cc(NC[C@H]3CCC[C@H](N)C3)nn2-c2ccc(N3CCC(O)CC3)cc2)cc1F` [Example 89, 4-(3-((((1S,3S)-3-aminocyclohexyl)methyl)amino)-1-(4-(4-hydroxypiperidin-1-yl)phenyl)-1H-pyrazol-5-yl)-2-fluorobenzonitrile], in experiment [1], the half-inhibitory concentration (IC50) was under 500 nM.

With `COC1CCN(c2ccc(-n3nc(NCC45CCN(CC4)CC5)cc3-c3ccc(C#N)c(F)c3)cc2)CC1` [Example 124, 2-Fluoro-4-(1-(4-(4-methoxypiperidin-1-yl)phenyl)-3-((quinuclidin-4-ylmethyl)amino)-1H-pyrazol-5-yl)benzo-nitrile 2,2,2-trifluoroacetate], in experiment [1], the IC50 was under 500 nM.

Compound `CC1(O)CCN(c2ccc(-n3nc(NC[C@H]4CCC[C@H](N)C4)cc3-c3ccc(C#N)c(F)c3)cc2)CC1` [Example 101, 4-(3-((((1S,3S)-3-aminocyclohexyl)methyl)amino)-1-(4-(4-hydroxy-4-methylpiperidin-1-yl)phenyl)-1H-pyrazol-5-yl)-2-fluorobenzonitrile 2,2,2-trifluoroacetate] yielded a half-maximal inhibitory concentration (IC50) in experiment [1] of under 500 nM.

The compound `N#Cc1ccc(-c2cc(NCC3CCCNCC3)nn2-c2ccc(N3CCS(=O)(=O)CC3)cc2F)cc1F` (stereo not shown) [Example 107, 4-(3-((azepan-4-ylmethyl)amino)-1-(4-(1,1-dioxidothiomorpholino)-2-fluorophenyl)-1H-pyrazol-5-yl)-2-fluorobenzonitrile] showed an IC50 in experiment [1] of under 500 nM.

Regarding `CN1CCN(c2ccc(-n3nc(NC[C@H]4CCC[C@H](N)C4)cc3-c3ccc(C#N)c(F)c3)cc2)CC1=O` [Example 105, 4-(3-((((1S,3S)-3-aminocyclohexyl)methyl)amino)-1-(4-(4-methyl-3-oxopiperazin-1-yl)phenyl)-1H-pyrazol-5-yl)-2-fluorobenzonitrile], the IC50 in experiment [1] fell in the range of 1000 to 10000 nM.

On to `COc1cc(N2CCC(C)(O)CC2)ccc1-n1nc(NC[C@H]2CCC[C@H](N)C2)cc1-c1ccc(C#N)c(F)c1` [Example 115, 4-(3-((((1S,3S)-3-aminocyclohexyl)methyl)amino)-1-(4-(4-hydroxy-4-methylpiperidin-1-yl)-2-methoxyphenyl)-1H-pyrazol-5-yl)-2-fluorobenzonitrile 2,2,2-trifluoroacetate], for which the half-maximal inhibitory concentration (IC50) in experiment [1] is 1000 to 10000 nM.

With `COC1(C)CCN(c2ccc(-n3nc(NC[C@H]4CCC[C@H](N)C4)cc3-c3ccc(C#N)c(F)c3)cc2)CC1` [Example 102, 4-(3-((((1S,3S)-3-aminocyclohexyl)methyl)amino)-1-(4-(4-methoxy-4-methylpiperidin-1-yl)phenyl)-1H-pyrazol-5-yl)-2-fluorobenzonitrile 2,2,2-trifluoroacetate], the 50% inhibitory concentration (IC50) in experiment [1] is under 500 nM.

In experiment [1], `N#Cc1ccc(-c2cc(NC[C@@H]3CCCNCC3)nn2-c2ccc(N3CC[S+]([O-])CC3)cc2)cc1F` [Example 91, (R)-4-(3-((azepan-4-ylmethyl)amino)-1-(4-(1-oxidothiomorpholino)phenyl)-1H-pyrazol-5-yl)-2-fluorobenzonitrile 2,2,2-trifluoroacetate] returned a concentration for half-maximal inhibition (IC50) of under 500 nM.

In the case of `N#Cc1ccc(-c2cc(NC[C@H]3CCC[C@H](N)C3)nn2-c2ccc(N3CCC(C#N)CC3)cc2)cc1F` [Example 103, 1-(4-(3-((((1S,3S)-3-aminocyclohexyl)methyl)amino)-5-(4-cyano-3-fluorophenyl)-1H-pyrazol-1-yl)phenyl)piperidine-4-carbonitrile 2,2,2-trifluoroacetate], in experiment [1], the IC50 is under 500 nM.
